Reference: paper PMC8476002, “Bergamottin a CYP3A inhibitor found in grapefruit juice inhibits prostate cancer cell growth by downregulating androgen receptor signaling and promoting G0/G1 cell cycle block and apoptosis” (PLoS ONE, 2021)

Legend:
Type in all cases: cell-based, human
[1] = tested on: cell cycle regulating proteins in LNCaP cells; assay: Western blot of cell cycle regulating proteins, LNCaP; conditions: for CDK2, normalized fold change after GAPDH calibration / CDK4, normalized fold change after GAPDH calibration / CDK6, normalized fold change after GAPDH calibration / Cyclin A, normalized fold change after GAPDH calibration / Cyclin B1, normalized fold change after GAPDH calibration / Cyclin D1, normalized fold change after GAPDH calibration / Cyclin D3, normalized fold change after GAPDH calibration / Cyclin E, normalized fold change after GAPDH calibration / Myt 1, normalized fold change after GAPDH calibration / P-Wee1, normalized fold change after GAPDH calibration / P-cdc2, normalized fold change after GAPDH calibration / P-histone H3, normalized fold change after GAPDH calibration / p21, normalized fold change after GAPDH calibration / p27, normalized fold change after GAPDH calibration: LNCAP, 48 hrs., 0 μM = 100
Method: (§1) Cells were plated at 25–30% confluence when maintained in complete media. When the cells required DHT tretment and media replacement to charcoal stripped serum media (CSSM) they were plated at 35–40% confluence. Bergamottin is dissolved in DMSO (vehicle control) and the amount of DMSO at each treatment group was kept constant. After the completion of the treatment cells were washed in phosphate buffer (PBS) containing 2mMEDTA and 2mM EGTA and lysed in RIPA buffer (50 mM TRIS, 150 mM NaCl, 1% NP40, 0.5% sodium deoxycholate, 0.1% SDS, 2mM EDTA, 2mM EGTA) supplemented with protease and phosphatase inhibitors for total protein isolation. Protein estimation was performed using micro BCA assay and equal protein amponts were loaded on SDS-PAGE gels for western analysis. GAPDH was used as an internal control for total protein. Infrared fluorescent-labeled secondary antibodies were used for detection using Odyssey CLx. The bands were quantified using Odyssey software, which calculates pixel density and automatically takes an area adjacent to each band for background corrections. […]

[2] = tested on: cell cycle regulating proteins in MDAPCa2b cells; assay: Western blot of cell cycle regulating proteins, MDAPCa2b; conditions: for CDK2, normalized fold change after GAPDH calibration / CDK4, normalized fold change after GAPDH calibration / CDK6, normalized fold change after GAPDH calibration / Cyclin A, normalized fold change after GAPDH calibration / Cyclin B1, normalized fold change after GAPDH calibration / Cyclin D1, normalized fold change after GAPDH calibration / Cyclin D3, normalized fold change after GAPDH calibration / Cyclin E, normalized fold change after GAPDH calibration / Myt 1, normalized fold change after GAPDH calibration / P-Wee1, normalized fold change after GAPDH calibration / P-cdc2, normalized fold change after GAPDH calibration / P-histone H3, normalized fold change after GAPDH calibration / p21, normalized fold change after GAPDH calibration / p27, normalized fold change after GAPDH calibration: 48 hrs., 0 μM = 100
Method: as §1

[3] = tested on: AR nuclear localization in MDAPCa2b cells; assay: Confocal microscopy of AR nuclear localization, MDAPCa2b; conditions: bergamottin 10μM, versus DMSO
Method: Cells were seeded into 35 mm Glass bottom dish (Cellvis catalog# D35C4-20-1.5-N) in complete media; media was changed to CSSM prior to DHT treatment. The cells were fixed in 4% paraformaldehyde for 20 minutes and permeabilized using permeabilizing buffer (0.2% Tween 20 in PBS) for 5 minutes. Cells were blocked using 10% goat serum diluted in permeabilizing buffer with 1% BSA for 15 minutes. Primary antibodies were diluted at 1:100 in staining buffer (1% BSA in PBS) and incubated for 2 hours at room temperature. Cells were washed three times (5 minutes each) in PBS. Secondary antibodies, TRITC-conjugated Donkey Anti-rabbit (711-025-152) was from Jackson immuno research, West Grove, PA was diluted at 1:100 in staining buffer and incubated for 60 minutes at room temperature. Cells were washed three times (5 minutes) in PBS and stained with 1 μg/mL DAPI (4’, 6-diamidino-2-phenylindole) in PBS for 5 minutes at room temperature. The cells were stored in PBS at 4°C until imaging was completed.
Cells were imaged using confocal laser scanning microscopy on a Nikon A1R using a galvano scanner and a 60× Apo-TIRF oil immersion objective. NIS Elements software form Nikon was used for recording the data.

[4] = tested on: PARP cleavage in MDAPCa2b cells; assay: Western blot of PARP cleavage, MDAPCa2b; conditions: 5 and 10 μM for 96 hrs. and 20 μM for 48 hrs.
Method: Cells were plated at 25–30% confluence when maintained in complete media. When the cells required DHT tretment and media replacement to charcoal stripped serum media (CSSM) they were plated at 35–40% confluence. Bergamottin is dissolved in DMSO (vehicle control) and the amount of DMSO at each treatment group was kept constant. After the completion of the treatment cells were washed in phosphate buffer (PBS) containing 2mMEDTA and 2mM EGTA and lysed in RIPA buffer (50 mM TRIS, 150 mM NaCl, 1% NP40, 0.5% sodium deoxycholate, 0.1% SDS, 2mM EDTA, 2mM EGTA) supplemented with protease and phosphatase inhibitors for total protein isolation. Protein estimation was performed using micro BCA assay and equal protein amponts were loaded on SDS-PAGE gels for western analysis. GAPDH was used as an internal control for total protein. Infrared fluorescent-labeled secondary antibodies were used for detection using Odyssey CLx. The bands were quantified using Odyssey software, which calculates pixel density and automatically takes an area adjacent to each band for background corrections.
Cells were plated in complete media without antibiotics on poly D-lysine-coated plates (80,000 cells per 6 well). […]

[5] = LNCaP, low dose 5 and 10 μM, 96 hrs.

CC(C)=CCC/C(C)=C/COc1c2ccoc2cc2oc(=O)ccc12 [bergamottin]
CDK2, normalized fold change after GAPDH calibration ([1]; Bergamottin 20 μM): 62 | CDK4, normalized fold change after GAPDH calibration ([1]; Bergamottin 20 μM): 46 | CDK6, normalized fold change after GAPDH calibration ([1]; Bergamottin 20 μM): 60 | Cyclin A, normalized fold change after GAPDH calibration ([1]; Bergamottin 20 μM): 80 | Cyclin B1, normalized fold change after GAPDH calibration ([1]; Bergamottin 20 μM): 50 | Cyclin D1, normalized fold change after GAPDH calibration ([1]; Bergamottin 20 μM): 43 | Cyclin D3, normalized fold change after GAPDH calibration ([1]; Bergamottin 20 μM): 68 | Cyclin E, normalized fold change after GAPDH calibration ([1]; Bergamottin 20 μM): 109 | Myt 1, normalized fold change after GAPDH calibration ([1]; Bergamottin 20 μM): 103 | P-Wee1, normalized fold change after GAPDH calibration ([1]; Bergamottin 20 μM): 63 | P-cdc2, normalized fold change after GAPDH calibration ([1]; Bergamottin 20 μM): 18 | P-histone H3, normalized fold change after GAPDH calibration ([1]; Bergamottin 20 μM): 294 | p21, normalized fold change after GAPDH calibration ([1]; Bergamottin 20 μM): 83 | p27, normalized fold change after GAPDH calibration ([1]; Bergamottin 20 μM): 112 | CDK2, normalized fold change after GAPDH calibration ([1]; Bergamottin 30 μM): 67 | CDK4, normalized fold change after GAPDH calibration ([1]; Bergamottin 30 μM): 30 | CDK6, normalized fold change after GAPDH calibration ([1]; Bergamottin 30 μM): 12 | Cyclin A, normalized fold change after GAPDH calibration ([1]; Bergamottin 30 μM): 55 | Cyclin B1, normalized fold change after GAPDH calibration ([1]; Bergamottin 30 μM): 44 | Cyclin D1, normalized fold change after GAPDH calibration ([1]; Bergamottin 30 μM): 12 | Cyclin D3, normalized fold change after GAPDH calibration ([1]; Bergamottin 30 μM): 44 | Cyclin E, normalized fold change after GAPDH calibration ([1]; Bergamottin 30 μM): 53 | Myt 1, normalized fold change after GAPDH calibration ([1]; Bergamottin 30 μM): 82 | P-Wee1, normalized fold change after GAPDH calibration ([1]; Bergamottin 30 μM): 37 | P-cdc2, normalized fold change after GAPDH calibration ([1]; Bergamottin 30 μM): 5 | P-histone H3, normalized fold change after GAPDH calibration ([1]; Bergamottin 30 μM): 35 | p21, normalized fold change after GAPDH calibration ([1]; Bergamottin 30 μM): 102 | p27, normalized fold change after GAPDH calibration ([1]; Bergamottin 30 μM): 183 | CDK4 level (western blot) [1, 5]: did not observe any significant change | CDK6 level (western blot) [1, 5]: did not observe any significant change | cdc-2 phosphorylation (western blot) [1, 5]: Decreased cdc-2 phosphorylation | cyclin B1 level (western blot) [1, 5]: lower | cyclin D1 level (western blot) [1, 5]: lower | cyclin D3 level (western blot) [1, 5]: lower | CDK2, normalized fold change after GAPDH calibration ([2]; Bergamottin 20 μM): 63 | CDK4, normalized fold change after GAPDH calibration ([2]; Bergamottin 20 μM): 90 | CDK6, normalized fold change after GAPDH calibration ([2]; Bergamottin 20 μM): 108 | Cyclin A, normalized fold change after GAPDH calibration ([2]; Bergamottin 20 μM): 86 | Cyclin B1, normalized fold change after GAPDH calibration ([2]; Bergamottin 20 μM): 52 | Cyclin D1, normalized fold change after GAPDH calibration ([2]; Bergamottin 20 μM): 106 | Cyclin D3, normalized fold change after GAPDH calibration ([2]; Bergamottin 20 μM): 55 | Cyclin E, normalized fold change after GAPDH calibration ([2]; Bergamottin 20 μM): 120 | Myt 1, normalized fold change after GAPDH calibration ([2]; Bergamottin 20 μM): 259 | P-Wee1, normalized fold change after GAPDH calibration ([2]; Bergamottin 20 μM): 80 | P-cdc2, normalized fold change after GAPDH calibration ([2]; Bergamottin 20 μM): 14 | P-histone H3, normalized fold change after GAPDH calibration ([2]; Bergamottin 20 μM): 130 | p21, normalized fold change after GAPDH calibration ([2]; Bergamottin 20 μM): 139 | p27, normalized fold change after GAPDH calibration ([2]; Bergamottin 20 μM): 158 | CDK2, normalized fold change after GAPDH calibration ([2]; Bergamottin 30 μM): 77 | CDK4, normalized fold change after GAPDH calibration ([2]; Bergamottin 30 μM): 81 | CDK6, normalized fold change after GAPDH calibration ([2]; Bergamottin 30 μM): 98 | Cyclin A, normalized fold change after GAPDH calibration ([2]; Bergamottin 30 μM): 58 | Cyclin B1, normalized fold change after GAPDH calibration ([2]; Bergamottin 30 μM): 42 | Cyclin D1, normalized fold change after GAPDH calibration ([2]; Bergamottin 30 μM): 110 | Cyclin D3, normalized fold change after GAPDH calibration ([2]; Bergamottin 30 μM): 49 | Cyclin E, normalized fold change after GAPDH calibration ([2]; Bergamottin 30 μM): 87 | Myt 1, normalized fold change after GAPDH calibration ([2]; Bergamottin 30 μM): 451 | P-Wee1, normalized fold change after GAPDH calibration ([2]; Bergamottin 30 μM): 87 | P-cdc2, normalized fold change after GAPDH calibration ([2]; Bergamottin 30 μM): 15 | P-histone H3, normalized fold change after GAPDH calibration ([2]; Bergamottin 30 μM): 152 | p21, normalized fold change after GAPDH calibration ([2]; Bergamottin 30 μM): 126 | p27, normalized fold change after GAPDH calibration ([2]; Bergamottin 30 μM): 143 | CDK4 level (western blot) ([2]; low dose 5 and 10 μM, 96 hrs.): did not observe any significant change | CDK6 level (western blot) ([2]; low dose 5 and 10 μM, 96 hrs.): did not observe any significant change | cdc-2 phosphorylation (western blot) ([2]; low dose 5 and 10 μM, 96 hrs.): Decreased cdc-2 phosphorylation | cyclin B1 level (western blot) ([2]; low dose 5 and 10 μM, 96 hrs.): lower | cyclin D3 level (western blot) ([2]; low dose 5 and 10 μM, 96 hrs.): lower | active AR migration to the nucleus with DHT induction (confocal) [3]: significantly reduced | PARP cleavage [4]: showed apoptosis (cleaved PARP)
